# Assay results published in ChEMBL document CHEMBL1201862, “PubChem BioAssay data set” (2004).
#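 Assay format: 96-well plates, 48-hour exposure. GI50 marks 50% less growth.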 Active and inactive are the calls of the source. Cut-off read from the data, not from the text of the source: active = GI50 up to about 1.1 µM and inactive = higher.
# What was measured:
# Assay in all cases: NCI-60 cell line screen, 48 h
# [1] = test system: NCI-H226
# [2] = test system: SF-539
# [3] = test system: EKVX
# [4] = test system: SK-MEL-28
# [5] = test system: UO-31
# [6] = test system: SR
# [7] = test system: UACC-62
# [8] = test system: IGROV-1
# [9] = test system: OVCAR-8
# [10] = test system: NCI/ADR-RES
# [11] = test system: SK-OV-3
# [12] = test system: SW-620
# [13] = test system: Hs-578T
# [14] = test system: RXF 393
# [15] = test system: NCI-H23
# [16] = test system: DU-145
# [17] = test system: SNB-19
# [18] = test system: HOP-62
# [19] = test system: PC-3
# [20] = test system: A498
# [21] = test system: KM12
# [22] = test system: NCI-H460
# [23] = test system: MDA-MB-231
# [24] = test system: M14
# [25] = test system: U-251
# [26] = test system: LOX IMVI
# [27] = test system: SK-MEL-5
# [28] = test system: SF-295
# [29] = test system: CAKI-1
# [30] = test system: UACC-257
# [31] = test system: 786-0
# [32] = test system: TK-10
# [33] = test system: OVCAR-4
# [34] = test system: SNB-75
# [35] = test system: SF-268
# [36] = test system: BT-549
# [37] = test system: HOP-92
# [38] = test system: SK-MEL-2
# [39] = test system: COLO 205
# [40] = test system: T47D
# [41] = test system: HCC 2998
# [42] = test system: RPMI-8226
# [43] = test system: MDA-MB-435
# [44] = test system: K562
# [45] = test system: ACHN
# [46] = test system: HCT-116
# [47] = test system: SN12C
# [48] = test system: NCI-H522
# [49] = test system: HT-29
# [50] = test system: HL-60
# [51] = test system: CCRF-CEM
# [52] = test system: HCT-15
# [53] = test system: MCF7
# [54] = test system: OVCAR-3
# [55] = test system: Malme-3M
# [56] = test system: A549
# [57] = test system: MOLT-4
# [58] = test system: OVCAR-5
compound,measurement,setting,value
COc1ccc2oc(C(=O)N3CC(CCl)c4ccc([N+](=O)[O-])cc43)cc2c1 (stereo not given),GI50,[1],0.664 µM (active)
same,GI50,[2],14 µM (inactive)
same,GI50,[3],15.8 µM (inactive)
same,GI50,[4],> 100 µM (inactive)
same,GI50,[5],4.45 µM (inactive)
same,GI50,[6],0.402 µM (active)
same,GI50,[7],41.9 µM (inactive)
same,GI50,[8],0.103 µM (active)
same,GI50,[9],17.2 µM (inactive)
same,GI50,[10],17.9 µM (inactive)
same,GI50,[11],13.2 µM (inactive)
same,GI50,[12],> 100 µM (inactive)
same,GI50,[13],9.12 µM (inactive)
same,GI50,[14],13.4 µM (inactive)
same,GI50,[15],73.8 µM (inactive)
same,GI50,[16],25.4 µM (inactive)
same,GI50,[17],25.2 µM (inactive)
same,GI50,[18],12.4 µM (inactive)
same,GI50,[19],20.7 µM (inactive)
same,GI50,[20],18.9 µM (inactive)
same,GI50,[21],0.381 µM (active)
same,GI50,[22],31.3 µM (inactive)
same,GI50,[23],14.9 µM (inactive)
same,GI50,[24],89.9 µM (inactive)
same,GI50,[25],26 µM (inactive)
same,GI50,[26],67 µM (inactive)
same,GI50,[27],> 100 µM (inactive)
same,GI50,[28],13 µM (inactive)
same,GI50,[29],15.4 µM (inactive)
same,GI50,[30],> 100 µM (inactive)
same,GI50,[31],16.2 µM (inactive)
same,GI50,[32],33.2 µM (inactive)
same,GI50,[33],15.2 µM (inactive)
same,GI50,[34],18.2 µM (inactive)
same,GI50,[35],13.3 µM (inactive)
same,GI50,[36],42.3 µM (inactive)
same,GI50,[37],26.1 µM (inactive)
same,GI50,[38],26.4 µM (inactive)
same,GI50,[39],74.6 µM (inactive)
same,GI50,[40],53.8 µM (inactive)
same,GI50,[41],> 100 µM (inactive)
same,GI50,[42],> 100 µM (inactive)
same,GI50,[43],0.468 µM (active)
same,GI50,[44],> 100 µM (inactive)
same,GI50,[45],40.6 µM (inactive)
same,GI50,[46],89.1 µM (inactive)
CN(Cc1cnc2c(n1)C(N)=NN(N)N2)c1ccc(C(=O)NC(CCP(=O)(O)O)C(=O)O)cc1 (stereo not given),GI50,[1],> 35.1 µM (inactive)
same,GI50,[2],3.47 µM (inactive)
same,GI50,[47],> 63.2 µM (inactive)
same,GI50,[3],> 43.3 µM (inactive)
same,GI50,[4],> 85.7 µM (inactive)
same,GI50,[5],> 19.9 µM (inactive)
same,GI50,[7],1.78 µM (inactive)
same,GI50,[8],4.86 µM (inactive)
same,GI50,[9],> 36.2 µM (inactive)
same,GI50,[48],26.4 µM (inactive)
same,GI50,[10],8.02 µM (inactive)
same,GI50,[11],> 100 µM (inactive)
same,GI50,[12],1.53 µM (inactive)
same,GI50,[13],> 100 µM (inactive)
same,GI50,[14],6.22 µM (inactive)
same,GI50,[15],14.9 µM (inactive)
same,GI50,[17],> 30.7 µM (inactive)
same,GI50,[18],> 100 µM (inactive)
same,GI50,[20],36.5 µM (inactive)
same,GI50,[49],9.51 µM (inactive)
same,GI50,[21],5.14 µM (inactive)
same,GI50,[22],1.87 µM (inactive)
same,GI50,[23],> 100 µM (inactive)
same,GI50,[24],4.53 µM (inactive)
same,GI50,[25],> 91 µM (inactive)
same,GI50,[50],0.252 µM (active)
same,GI50,[26],0.637 µM (active)
same,GI50,[27],5.35 µM (inactive)
same,GI50,[28],3.08 µM (inactive)
same,GI50,[29],> 52.8 µM (inactive)
same,GI50,[30],> 100 µM (inactive)
same,GI50,[31],1.86 µM (inactive)
same,GI50,[32],> 100 µM (inactive)
same,GI50,[51],0.267 µM (active)
same,GI50,[33],> 100 µM (inactive)
same,GI50,[52],6.14 µM
same,GI50,[34],7.01 µM (inactive)
same,GI50,[35],1.21 µM (inactive)
same,GI50,[53],2.18 µM (inactive)
same,GI50,[54],> 100 µM (inactive)
same,GI50,[36],16 µM (inactive)
same,GI50,[37],> 100 µM (inactive)
same,GI50,[38],> 100 µM (inactive)
same,GI50,[39],> 31.5 µM (inactive)
same,GI50,[55],> 23.8 µM (inactive)
same,GI50,[40],> 100 µM (inactive)
same,GI50,[56],2.43 µM (inactive)
same,GI50,[41],15.3 µM (inactive)
same,GI50,[57],5.42 µM (inactive)
same,GI50,[43],3.95 µM (inactive)
same,GI50,[44],> 100 µM (inactive)
same,GI50,[45],2.17 µM (inactive)
same,GI50,[46],0.45 µM (active)
c1ccc(Sc2nc(Sc3ccccc3)nc(Sc3ccccc3)n2)cc1,GI50,[1],25.9 µM (inactive)
same,GI50,[2],31.7 µM (inactive)
same,GI50,[47],> 100 µM (inactive)
same,GI50,[3],35 µM (inactive)
same,GI50,[4],43.7 µM (inactive)
same,GI50,[5],57 µM (inactive)
same,GI50,[6],> 100 µM (inactive)
same,GI50,[7],> 100 µM (inactive)
same,GI50,[48],97.1 µM (inactive)
same,GI50,[11],> 100 µM (inactive)
same,GI50,[13],13.3 µM (inactive)
same,GI50,[14],61.7 µM (inactive)
same,GI50,[15],> 100 µM (inactive)
same,GI50,[16],21.1 µM (inactive)
same,GI50,[17],31.8 µM (inactive)
same,GI50,[18],35.7 µM (inactive)
same,GI50,[19],7.11 µM (inactive)
same,GI50,[20],29.9 µM (inactive)
same,GI50,[49],38.9 µM (inactive)
same,GI50,[21],13.9 µM (inactive)
same,GI50,[22],47.6 µM (inactive)
same,GI50,[23],> 100 µM (inactive)
same,GI50,[24],> 100 µM (inactive)
same,GI50,[25],19.4 µM (inactive)
same,GI50,[50],6.38 µM (inactive)
same,GI50,[26],> 100 µM (inactive)
same,GI50,[27],> 100 µM (inactive)
same,GI50,[28],63.7 µM (inactive)
same,GI50,[29],38.9 µM (inactive)
same,GI50,[30],30.3 µM (inactive)
same,GI50,[32],44.6 µM (inactive)
same,GI50,[51],6.46 µM (inactive)
same,GI50,[33],55 µM (inactive)
same,GI50,[52],33.4 µM
same,GI50,[35],32 µM (inactive)
same,GI50,[58],58.7 µM (inactive)
same,GI50,[53],26.5 µM (inactive)
same,GI50,[54],13.3 µM (inactive)
same,GI50,[36],> 100 µM (inactive)
same,GI50,[38],37.2 µM (inactive)
same,GI50,[39],18.6 µM (inactive)
same,GI50,[55],> 100 µM (inactive)
same,GI50,[40],22.3 µM (inactive)
same,GI50,[56],28.5 µM (inactive)
same,GI50,[41],18.1 µM (inactive)
same,GI50,[42],15.4 µM (inactive)
same,GI50,[57],17.8 µM (inactive)
same,GI50,[43],52.1 µM (inactive)
same,GI50,[44],> 100 µM (inactive)
same,GI50,[45],29.8 µM (inactive)
same,GI50,[46],60.1 µM (inactive)
